Our source for the IC50 values is patent US20120207763A1, “PYRROLOPYRIMIDINE COMPOUNDS AND THEIR USES” (ASTEX THERAPEUTICS LIMITED, priority 2006, published 2012).

Experiment [1] addresses CDK2/Cyclin-A kinase complex (Homo sapiens, UniProt P24941). Put plainly: CDK2 IMAP fluorescence polarization assay. Format: biochemical. As to conditions: Table E; read-out: CDK2cyA IMAP/IC50 [umol l − 1]. From the text: In order to test the CDK2 activity of the compounds of the invention, the CDK2 assay is a flourescence polarization assay, where the enzyme is a purified active CDK2/Cyclin-A kinase complex and the substrate is a synthesized peptide derived from Histone H1. This assay utilizes the IMAP technology from Molecular Devices. The active CDK2/Cyclin-A complex phosphorylates the peptide substrate, which is conjugated with the TAMRA tag. The phosphorylated site is then recognized by a metal containing molecule that interacts with the TAMRA tag to induce a high flourescence polarization. The compounds that inhibit the CDK2 kinase activity would inhibit the flourescence output of the assay.
On the technique in general: Polarisation of emitted light reports the rotation of a fluorescent probe.

In the next experiment the target is CDK4 (Homo sapiens, UniProt P11802). Put plainly: CDK4 HTRF assay. The experiment is classed as biochemical. As to conditions: Table E. In general terms: Time-resolved FRET reads energy transfer from a long-lived donor to a nearby acceptor.
[2] abbreviates: read-out: CDK4 HTRF/IC50 [umol l − 1].

Where two headings read alike, the source gives them in different places.

Chain of CDK4 (P11802 whole entry): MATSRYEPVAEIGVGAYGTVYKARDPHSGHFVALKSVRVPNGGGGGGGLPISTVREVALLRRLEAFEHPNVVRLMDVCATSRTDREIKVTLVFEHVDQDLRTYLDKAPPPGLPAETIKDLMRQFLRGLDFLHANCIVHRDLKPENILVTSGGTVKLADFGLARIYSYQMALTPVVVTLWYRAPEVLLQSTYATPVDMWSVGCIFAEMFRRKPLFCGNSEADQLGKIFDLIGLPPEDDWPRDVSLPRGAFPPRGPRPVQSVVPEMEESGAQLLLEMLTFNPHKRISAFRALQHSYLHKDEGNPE
Chain of CDK4 (P24385 whole entry partner): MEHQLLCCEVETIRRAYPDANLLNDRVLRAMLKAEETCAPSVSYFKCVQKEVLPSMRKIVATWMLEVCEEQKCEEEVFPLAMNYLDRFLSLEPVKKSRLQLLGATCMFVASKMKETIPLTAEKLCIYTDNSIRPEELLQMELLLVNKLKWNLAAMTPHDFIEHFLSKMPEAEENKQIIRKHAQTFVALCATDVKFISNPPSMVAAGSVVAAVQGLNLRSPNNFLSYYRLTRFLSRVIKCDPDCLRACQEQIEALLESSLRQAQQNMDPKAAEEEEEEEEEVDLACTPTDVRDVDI

On to `COc1cccc(Nc2ncc3c(C)cn(C4CCCC4)c3n2)c1` [Example 294], for which the IC50 in experiment [1] was under 10 µM; on CDK4 (setting [2]), 10 µM.

As to `Cc1ccc(Nc2ncc3ccn(C4CCCC4)c3n2)nc1` [Example 434], the IC50 (in experiment [1]; at CDK4 (setting [2])) was over 10 µM in each case.

Turning to `CC1CCC(n2ccc3cnc(Nc4ccc(N5CCNCC5)cc4)nc32)CC1` (stereo not shown) [Example 240], the IC50 in experiment [1] was under 10 µM; on CDK4 (setting [2]), under 1 µM.

As to `COC(=O)c1c(C)n(C2CCCC2)c2nc(Nc3ccc(N4CCNCC4)cc3)ncc12` [Example 408], the IC50 (in experiment [1]; on CDK4 (setting [2])) was over 10 µM throughout.

For `CCC(CC)n1c(C(C)OC)cc2cnc(Nc3ccc(N4CCNCC4)cc3)nc21` (stereo not shown) [Example 378, [7-(1-Ethyl-propyl)-6-(1-methoxy-ethyl)-7H-pyrrolo[2,3-d]pyrimidin-2-yl]-(4-piperazin-1-yl-phenyl)-amine], the results for the IC50 (in experiment [1]; at CDK4 (setting [2])) were under 10 µM and under 1 µM, respectively.

In the case of `Cc1c(C(=O)O)n(C2CCCC2)c2nc(Nc3ccc(N4CCNCC4)cn3)ncc12` [Example 444], the values for the IC50 (in experiment [1]; on CDK4 (setting [2])) were over 10 µM and under 1 µM, respectively.

Take `OC1CCCC(n2ccc3cnc(Nc4ccc(N5CCNCC5)cc4)nc32)C1` (stereo not shown) [Example 244]: the IC50 (in experiment [1]; at CDK4 (setting [2])) was under 1 µM throughout.

On to `c1cc(N2CCNCC2)ccc1Nc1ncc2ccn(C3CCCC3)c2n1` [Example 256], for which the results for the IC50 (in experiment [1]; at CDK4 (setting [2])) were under 10 µM and under 1 µM, respectively.

As for `c1cc(N2CCNCC2)ccc1Nc1ncc2ccn(C34CC5CC(CC(C5)C3)C4)c2n1` [Example 245], the IC50 (in experiment [1]; at CDK4 (setting [2])) was under 1 µM throughout.

`c1cc(Nc2ncc3ccn(C4CCCC4)c3n2)ncc1N1CCNCC1` [Example 424]: the IC50 was over 10 µM in experiment [1] and under 1 µM against CDK4 (CDK4 HTRF/IC50 [umol l − 1]).

Consider `Cc1cn(-c2ccccc2)c2nc(Nc3ccc(N4CCNCC4)cc3)ncc12` [Example 273], for which the IC50 (in experiment [1]; at CDK4 (setting [2])) was over 10 µM in each case.

As to `CCN(CC)c1ccc(Nc2ncc3ccn(C4CCCC4)c3n2)cc1` [Example 261], the IC50 is under 10 µM in experiment [1] and over 10 µM at CDK4 (setting [2]).

`NC1CCC(n2ccc3cnc(Nc4ccc(N5CCNCC5)cc4)nc32)CC1` (stereo not shown) [Example 243]: the IC50 (in experiment [1]; at CDK4 (setting [2])) was under 1 µM each time.

As to `CCC(CC)n1c(C(=O)N(C)C)cc2cnc(Nc3ccc(N4CCNCC4)cc3)nc21` [Example 335, 7-(1-ethyl-propyl)-2-(4-piperazin-1-yl-phenylamino)-7H-pyrrolo[2,3-d]pyrimidine-6-carboxylic acid dimethyl amide], the IC50 in experiment [1] is under 10 µM; at CDK4 (setting [2]) it was under 1 µM.

For `Clc1cn(C2CCCC2)c2nc(Nc3ccc(N4CCNCC4)cn3)ncc12` [Example 433], the values for the IC50 (in experiment [1]; at CDK4 (setting [2])) were over 10 µM and under 1 µM, respectively.

On to `Cc1cn(C2CCCCC2)c2nc(Nc3ccc(N4CCNCC4)cn3)ncc12` [Example 426], for which the IC50 in experiment [1] was over 10 µM; at CDK4 (setting [2]), under 1 µM.

With `Cc1cn(C2CCCC2)c2nc(Nc3ccccc3F)ncc12` [Example 441], the IC50 is over 10 µM in experiment [1] and 10 µM at CDK4 (setting [2]).

Take `Cc1cn(C2CC2)c2nc(Nc3ccc(N4CCNCC4)cc3)ncc12` [Example 276]: the IC50 (in experiment [1]; at CDK4 (setting [2])) was over 10 µM each time.

For `c1ncc(-c2ccc(Nc3ncc4ccn(C5CCCC5)c4n3)cc2)o1` [Example 258], the IC50 is under 10 µM in experiment [1] and over 10 µM on CDK4 (setting [2]).

`Cc1ccc(Nc2ncc3ccn(C4CCCC4)c3n2)cc1` [Example 435]: the values for the IC50 (in experiment [1]; at CDK4 (setting [2])) were under 10 µM and over 10 µM, respectively.

Consider `Cc1cn(-c2cccnc2)c2nc(Nc3ccc(N4CCNCC4)cn3)ncc12` [Example 447], for which the IC50 is over 10 µM in experiment [1] and 10 µM on CDK4 (setting [2]).

On to `Cc1cn(C2CCCC2)c2nc(Nc3ncccn3)ncc12` [Example 296], for which the IC50 is over 10 µM in experiment [1] and 10 µM on CDK4 (setting [2]).

With `Cc1c(Cl)c2cnc(Nc3ccc(N4CCNCC4)cn3)nc2n1C1CCCC1` [Example 334], the IC50 was over 10 µM in experiment [1] and under 1 µM on CDK4 (setting [2]).

As to `Cc1cc(-c2c(C)c3cnc(Nc4ccc(N5CCNCC5)cn4)nc3n2C2CCCC2)[nH]n1` [Example 404], the IC50 is over 10 µM in experiment [1] and under 1 µM at CDK4 (setting [2]).

For the molecule `Cc1cn(C2CCCC2)c2nc(Nc3cccc(Cl)c3)ncc12` [Example 299], the IC50 was under 10 µM in experiment [1] and 10 µM at CDK4 (setting [2]).

`CCC(C)n1ccc2cnc(Nc3ccc(N4CCNCC4)cc3)nc21` (stereo not shown) [Example 230]: the IC50 is under 10 µM in experiment [1] and under 1 µM on CDK4 (setting [2]).

`CCOC(=O)C(C(C)C)n1ccc2cnc(Nc3ccc(N4CCNCC4)cc3)nc21` (stereo not shown) [Example 231]: the IC50 was over 10 µM in experiment [1] and under 1 µM on CDK4 (setting [2]).

Regarding `c1cc(N2CCNCC2)ccc1Nc1ncc2ccn(C3CCCCC3)c2n1` [Example 246], the IC50 (in experiment [1]; at CDK4 (setting [2])) was under 1 µM in each case.

Consider `Cc1cn(C2CCCC2)c2nc(Nc3ccc(N4CCN(S(C)(=O)=O)CC4)cn3)ncc12` [Example 287], for which the figures for the IC50 (in experiment [1]; on CDK4 (setting [2])) were over 10 µM and 10 µM, respectively.

Take `COC(=O)c1c(C)c2cnc(Nc3ccc(N4CCNCC4)cn3)nc2n1C1CCCC1` [Example 384, 7-Cyclopentyl-5-methyl-2-(5-piperazin-1-yl-pyridin-2-ylamino)-7H-pyrrolo[2,3-d]pyrimidine-6-carboxylic acid methyl ester]: the IC50 in experiment [1] is over 10 µM; at CDK4 (setting [2]), under 1 µM.

For the molecule `COc1ccccc1Nc1ncc2c(C)cn(C3CCCC3)c2n1` [Example 293], the IC50 in experiment [1] is over 10 µM; on CDK4 (setting [2]), 10 µM.

With `CCC(CC)n1c(C(C)=O)cc2cnc(Nc3ccc(N4CCN(C(C)=O)CC4)cc3)nc21` [Example 377, 1-[2-[4-(4-Acetyl-piperazin-1-yl)-phenylamino]-7-(1-ethyl-propyl)-7H-pyrrolo[2,3-d]pyrimidin-6-yl]-ethanone], the IC50 (in experiment [1]; on CDK4 (setting [2])) was under 1 µM each time.

For `Cc1cn(-c2nccs2)c2nc(Nc3ccc(N4CCN(S(C)(=O)=O)CC4)cn3)ncc12` [Example 446], the values for the IC50 (in experiment [1]; at CDK4 (setting [2])) were under 10 µM and 10 µM, respectively.

On to `Cc1cn(C2CCCC2)c2nc(Nc3ccc(N4CCN(S(C)(=O)=O)CC4)cc3)ncc12` [Example 286], for which the IC50 in experiment [1] was under 10 µM.

`CCC(CC)n1c(CNC(C)C)cc2cnc(Nc3ccc(N4CCNCC4)cc3)nc21` [Example 367]: in experiment [1], the IC50 was under 10 µM.

As for `Cc1cn(C2CCCC2)c2nc(Nc3ccc(F)cc3)ncc12` [Example 442], the IC50 was under 10 µM in experiment [1] and 10 µM at CDK4 (setting [2]).

`Cc1cn(-c2ccccc2)c2nc(Nc3ccc(N4CCNCC4)cc3)ncc12` [Example 437]: the IC50 in experiment [1] was over 10 µM.

Regarding `Cc1cn(C2CCCC2)c2nc(Nc3ccccc3C#N)ncc12` [Example 301], the figures for the IC50 (in experiment [1]; at CDK4 (setting [2])) were over 10 µM and 10 µM, respectively.

Consider `CCC(CC)n1ccc2cnc(Nc3ccc(N4CCNCC4)cc3)nc21` [Example 202, [7-(1-Ethyl-propyl)-7H-pyrrolo[2,3-d]pyrimidin-2-yl]-(4-piperazin-1-yl-phenyl)-amine], for which the results for the IC50 (in experiment [1]; at CDK4 (setting [2])) were under 10 µM and under 1 µM, respectively.

As for `CCc1cn(C2CCCC2)c2nc(Nc3ccc(N4CCNCC4)cc3)ncc12` [Example 438], the IC50 in experiment [1] is under 10 µM.

On to `CCC(CC)n1c(-c2cnco2)cc2cnc(Nc3ccc(N4CCN(C(C)=O)CC4)cc3)nc21` [Example 363, 1-(4-{4-[7-(1-Ethyl-propyl)-6-oxazol-5-yl-7H-pyrrolo[2,3-d]pyrimidin-2-ylamino]-phenyl}-piperazin-1-yl)-ethanone], for which the IC50 (in experiment [1]; on CDK4 (setting [2])) was under 1 µM each time.

Turning to `CCC(CC)n1c(C(=O)Nc2ccccc2)cc2cnc(Nc3ccc(N4CCNCC4)cc3)nc21` [Example 345], the IC50 was under 10 µM in experiment [1] and under 1 µM on CDK4 (setting [2]).

Consider `O=C(O)[C@@H]1CCC(n2ccc3cnc(Nc4ccc(N5CCNCC5)cc4)nc32)C1` (stereo partly shown) [Example 248], for which the results for the IC50 (in experiment [1]; at CDK4 (setting [2])) were under 10 µM and under 1 µM, respectively.

In the case of `Cc1cccnc1Nc1ncc2c(C)cn(C3CCCC3)c2n1` [Example 297], the IC50 in experiment [1] was over 10 µM; at CDK4 (setting [2]), 10 µM.

For `CCC(CC)n1c(CNC(C)C)cc2cnc(Nc3ccc(N4CCN(C(C)=O)CC4)cc3)nc21` [Example 366], the IC50 in experiment [1] was under 10 µM.

Take `CCC(C(N)=O)n1ccc2cnc(Nc3ccc(N4CCN(C(C)=O)CC4)cc3)nc21` (stereo not shown) [Example 227]: in experiment [1], the IC50 is under 10 µM.

On to `CCC(CC)n1c(C(=O)NC2CCCC2)cc2cnc(Nc3ccc(N4CCNCC4)cc3)nc21` [Example 344], for which, in experiment [1], the IC50 is over 10 µM.

Regarding `Cc1cc(-c2c(C)c3cnc(Nc4ccc(N5CCNCC5)cn4)nc3n2C2CCCC2)on1` [Example 405], in experiment [1], the IC50 was over 10 µM.

As to `Cc1cn(C2CCCC2)c2nc(Nc3ccc(N4CCNCC4)nc3)ncc12` [Example 283], the IC50 in experiment [1] is over 10 µM.

For the molecule `CCC(=O)N1CCN(c2ccc(Nc3ncc4ccn(C(CC)CC)c4n3)cc2)CC1` [Example 237], in experiment [1], the IC50 is under 10 µM.

On to `CCC(CC)n1c(C(=O)N2CCOCC2)cc2cnc(Nc3ccc(N4CCNCC4)cc3)nc21` [Example 343], for which the IC50 in experiment [1] was over 10 µM.

Consider `CN1CCN(c2ccc(Nc3ncc4ccn(C5CCCC5)c4n3)cc2)CC1` [Example 253], for which the IC50 in experiment [1] is under 10 µM.

Regarding `CCC(C(=O)OC)n1ccc2cnc(Nc3ccc(N4CCNCC4)cc3)nc21` (stereo not shown) [Example 221], in experiment [1], the IC50 was under 10 µM.

`Cc1cn(C2CC2)c2nc(Nc3ccc(N4CCNCC4)cn3)ncc12` [Example 271]: the IC50 in experiment [1] was over 10 µM.
